pKi: −log10 of the molar value.
Key:
[1] = target: T1, LTB4 Receptor (Homo sapiens, UniProt Q15722); test: LTB4 Receptor Binding Assay (inhibition of 3H-LTB4 binding, human neutrophils); conditions: 0.5 nM 3H-LTB4, 45 minutes on ice, isolated human neutrophils
T1 construct: Isolated human neutrophils in Gey's salt solution; endogenous in cells; host or cells: human neutrophils isolated from blood (90-95% neutrophils)
Protocol: Binding assays can be performed in microtiter wells. Isolated human neutrophils in Gey's salt solution are incubated on ice for 45 minutes with 0.5 nM ^3 H-LTB4 in the presence or absence of test compounds. Assays are terminated by adding 12 ml ice cold 50 mM Tris (pH 7.4) followed by rapid filtration under vacuum through GF/C filters. Radioactivity is determined by scintillation counting. Non specific binding is defined as the binding not displaced by 100 fold excess of unlabelled LTB4. Specific binding is defined as the difference between total binding and non-specific binding. Non linear analysis of the binding data is performed using LIGAND (Munson and Rodbard, 1980). Ki (Inhibition Constant) values were determined using the Cheng-Prusoff relationship (Cheng and Prusoff, 1973).
Human neutrophils are prepared from citrated or heparinized blood. The blood was diluted 1:1 with Hank's balanced salt solution (HBSS) minus calcium and magnesium and underlayed with 10 ml lymphocyte separation medium (Organon Teknika), followed by centrifugation at 500× g for 30 min., at room temperature. Supernatants are removed down to the red blood cell pellet. HBSS minus calcium and magnesium are added to give 25 ml. To this are added 25 ml 6% dextran in 0.85% NaCl. Samples are mixed and allowed to stand 20 min at room temperature. Supernatants are removed and centrifuged at 500× g for 5 min at 4° C. Pellets are resuspended with 20 ml 0.2% saline for 20 sec followed by the addition of 20 ml 1.6% saline. Samples are centrifuged at 500× g for 5 min at 4° C. The lysis is repeated and the cells (90-95% neutrophils) are resuspended at 2× 10^6 cell/ml in GEY's salt solution.

[2] = system: LTB4 -induced bronchoconstriction; test: Guinea Pig Bronchoconstriction In Vivo (LTB4-induced); parameters: species or system guinea pig (Hartley strain); conditions: Cavia porcellus, iv, i.v. five minutes prior to LTB4 (1 μg/kg i.v.), read-out: ID50 (mg/kg), i.v., LTB4-induced bronchoconstriction
Protocol: Male guinea pigs (Hartley strain) weighing 300 to 500 g are anesthetized with urethane (2 g/kg) intraperitoneally and a polyethylene cannula is inserted into the jugular vein for drug administration. Tracheal pressure is recorded from a cannula inserted into the trachea and connected to a Gould P23ID pressure transducer. After surgical preparation of the animals, a period of time is allowed for pulmonary functions to stabilize. The test compound is administered intravenously five minutes prior to leukotriene B4 administration according to the following protocol: Animals are paralyzed with succinylcholine (1.2 mg/kg i.v.) and mechanically respirated (Harvard rodent respirator) at 40 breaths/minute and 2.5 cc tidal volume. Propranolol (0.1 mg/kg) is then administered intravenously one minute prior to leukotriene B4 administration. Animals are then challenged with an intermediate constrictory dose of leukotriene B4 (1 μg/kg) delivered intravenously.
The change (cm H2 O) between pre and peak ventilatory pressure readings is averaged for five control and five drug treated animals. The percent inhibition is calculated from the formula:
((Control-Drug Treated)/Control)×100
When representative compounds of formula I of the invention were utilized as the test compounds the following results were obtained: […]

T1 sequence (Q15722 whole entry): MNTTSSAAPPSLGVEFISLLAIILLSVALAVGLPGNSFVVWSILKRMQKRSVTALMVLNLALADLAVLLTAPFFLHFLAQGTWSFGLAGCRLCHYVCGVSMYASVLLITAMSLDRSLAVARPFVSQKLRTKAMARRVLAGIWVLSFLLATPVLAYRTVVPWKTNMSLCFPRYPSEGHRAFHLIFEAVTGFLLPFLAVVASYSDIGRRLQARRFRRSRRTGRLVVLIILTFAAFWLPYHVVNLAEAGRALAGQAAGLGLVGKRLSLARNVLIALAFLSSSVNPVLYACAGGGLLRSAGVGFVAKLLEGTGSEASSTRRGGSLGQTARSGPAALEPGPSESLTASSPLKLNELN

Row | SMILES | pKi [1] | ED50 [2]
1 | CCCc1c(OCCCCCOc2ccccc2CCC(=O)O)ccc2c1CCCC2=O [Example 10, 2-[[5-(5-Oxo-1-propyl-5,6,7,8-tetrahydro-2-naphthalenyl)oxy]pentyloxy]benzenepropanoic Acid] |  | 2.08 mg/kg
2 | CCCc1c(OCCCCCOc2cccc3cc(C(=O)O)oc23)ccc2c1OCCC2=O [Example 19, 7-[5-[(3,4-Dihydro-4-oxo-8-propyl-2H-1-benzopyran-7-yl)oxy]pentyloxy]-2-benzofurancarboxylic Acid] | 6.60 | 
3 | CCCc1c(OCCCCCOc2ccc(OCCCC(=O)O)cc2CCC(=O)O)ccc2c1OCCC2=O [Example 47, 5-(3-Carboxypropoxy)-2-[5-[(3,4-dihydro-4-oxo-8-propyl-2H-1-benzopyran-7-yl)oxy]pentyloxy]benzenepropanoic Acid] | 8.52 | 3.66 mg/kg
4 | CCCc1c(OCCCCCOc2ccc(OCCCCC(=O)O)cc2CCC(=O)O)ccc2c1OCCC2=O [Example 58, 5-(4-Carboxybutoxy)-2-[5-[(3,4-dihydro-4-oxo-8-propyl-2H-1-benzopyran-7-yl)oxy]pentyloxy]benzenepropanoic Acid Hemihydrate] | 8.40 | 5.09 mg/kg
5 | CCCc1ccc2c(c1OCCCCCOc1ccccc1CCC(=O)O)CCCC2=O [Example 79, 2-[5-[(5-Oxo-2-propyl-5,6,7,8-tetrahydro-1-naphthalenyl)oxy]pentyloxy]benzenepropanoic Acid] | 5.82 | 
6 | CCCc1c(OCCCCCOc2ccc(C(=O)c3ccccc3CC(=O)O)cc2CCC(=O)O)ccc2c1OCCC2=O [Example 95, 5-[[2-(Carboxymethyl)phenyl]carbonyl]-2-[5-[(3,4-dihydro-4-oxo-8-propyl-2H-1-benzopyran-7-yl)oxy]pentyloxy]benzenepropanoic Acid] | 8.10 | 
7 | CCCc1c(OCCCC/C=C/c2ccc(C(=O)c3cccc(C(=O)O)c3)cc2CCC(=O)O)ccc2c1OCCC2=O [Example 101, (E)-5-[(3-Carboxyphenyl)carbonyl]-2-[6-[(3,4-dihydro-4-oxo-8-propyl-2H-1-benzopyran-7-yl)oxy]-1-hexenyl]benzenepropanoic Acid] | 8.40 | 
8 | CCCc1c(CCCCCCOc2ccccc2CCC(=O)O)ccc2c1OCCC2=O [Example 106, 2-[6-(3,4-Dihydro-4-oxo-8-propyl-2H-1-benzopyran-7-yl)hexyloxy]benzenepropanoic Acid] | 7.70 | 
9 | CCCc1c(C#CCCCCOc2ccccc2CCC(=O)O)ccc2c1OCCC2=O [Example 107, 2-[6-(3,4-Dihydro-4-oxo-8-propyl-2H-1-benzopyran-7-yl)-5-hexynyloxy]benzenepropanoic Acid] | 7.30 | 
10 | CCCc1c(OCCCCCCc2cccc(OCCCCCCCC(=O)O)c2CCC(=O)O)ccc2c1OCCC2=O [Example 184, 2-[(7-Carboxyheptyl)oxy]-6-[6-[(3,4-dihydro-4-oxo-8-propyl-2H-1-benzopyran-7-yl)oxy]hexyl]benzenepropanoic Acid] |  | 0.17 mg/kg
11 | CCCc1c(OCCCCCCc2cccc(OCCCCCCCCC(=O)O)c2CCC(=O)O)ccc2c1OCCC2=O [Example 188, 2-[(8-Carboxyoctyl)oxy]-6-[6-[(3,4-dihydro-4-oxo-8-propyl-2H-1-benzopyran-7-yl)oxy]hexyl]benzenepropanoic Acid] |  | 0.9 mg/kg
12 | CCCc1c(OCCCCCCc2cccc(OCCCC(=O)O)c2CCC(=O)O)ccc2c1OCCC2=O [Example 205, 2-(3-Carboxypropoxy)-6-[6-[(3,4-dihydro-4-oxo-8-propyl-2H-1-benzopyran-7-yl)oxy]hexyl]benzenepropanoic Acid] |  | 0.26 mg/kg
13 | CCCc1c(OCCCCCCc2cccc(OCCCCCC(=O)O)c2CCC(=O)O)ccc2c1CCCC2=O [Example 206, 2-[(5-Carboxypentyl)oxy]-6-[6-[(5,6,7,8-tetrahydro-5-oxo-1-propyl-2-naphthalenyl)oxy]hexyl]benzenepropanoic Acid] |  | 0.12 mg/kg

Further lines, with some results ahead:

Row | pKi [1] | SMILES | ED50 [2]
14 | 7.20 | CCCc1c(OCCCCCc2ccccc2CCC(=O)O)ccc2c1OCCC2=O [Example 8, 2-[5-[(3,4-Dihydro-4-oxo-8-propyl-2H-1-benzopyran-7-yl)oxy]pentyl]benzenepropanoic Acid] | 
15 | 7.15 | CCCc1c(OCCCCCOc2ccccc2OCC(=O)O)ccc2c1OCCC2=O [Example 13, [2-[5-[(3,4-Dihydro-4-oxo-8-propyl-2H-1-benzopyran-7-yl)oxy]pentyloxy]phenoxy]acetic Acid] | 1.85 mg/kg
16 | 6.57 | CCCc1c(OCCCCCOc2ccc3oc(C(=O)O)cc3c2)ccc2c1OCCC2=O [Example 26, 5-[5-[(3,4-Dihydro-4-oxo-8-propyl-2H-1-benzopyran-7-yl)oxy]pentyloxy]-2-benzofurancarboxylic Acid] | 
17 | 8.00 | CCCc1c(OCCCCCOc2ccc(C(C)=O)cc2CCC(=O)O)ccc2c1OCCC2=O [Example 33, 5-Acetyl-2-[5-[(3,4-dihydro-4-oxo-8-propyl-2H-1-benzopyran-7-yl)oxy]pentyloxy]benzenepropanoic Acid] | 1.8 mg/kg
18 | 7.00 | CCCc1c(OCc2cccc(COc3ccccc3CCC(=O)O)c2)ccc2c1OCCC2=O [Example 39, 2-[3-[[(3,4-Dihydro-4-oxo-8-propyl-2H-1-benzopyran-7-yl)oxy]methyl]phenylmethoxy]benzenepropanoic Acid] | 5.4 mg/kg
19 | 7.12 | CCCc1c(OCCCCCOc2ccccc2CCC(=O)O)ccc2c1OCC2=O [Example 40, 2-[5-[(2,3-Dihydro-3-oxo-7-propylbenzofuran-6-yl)oxy]pentyloxy]benzenepropanoic Acid] | 
20 | 7.22 | CCCc1c(OCCCCCOc2cccc(CCC(=O)O)c2)ccc2c1OCCC2=O [Example 68, 3-[5-[(3,4-Dihydro-4-oxo-8-propyl-2H-1-benzopyran-7-yl)oxy]pentyloxy]benzenepropanoic Acid] | 3.56 mg/kg
21 | 8.52 | CCCc1c(OCCCCCCCOc2ccc(C(=O)c3cccc(C(=O)O)c3)cc2CCC(=O)O)ccc2c1OCCC2=O [Example 81, 5-[(3-Carboxyphenyl)carbonyl]-2-[7-[(3,4-dihydro-4-oxo-8-propyl-2H-1-benzopyran-7-yl)oxy]heptyloxy]benzenepropanoic Acid] | 
22 | 8.52 | CCCc1c(OCCCCCCCCOc2ccc(C(=O)c3cccc(C(=O)O)c3)cc2CCC(=O)O)ccc2c1OCCC2=O [Example 83, 5-[(3-Carboxyphenyl)carbonyl]-2-[8-[(3,4-dihydro-4-oxo-8-propyl-2H-1-benzopyran-7-yl)oxy]octyloxy]benzenepropanoic Acid] | 
23 | 8.52 | CCCc1c(OCCCCCOc2ccc(C(=O)c3ccc(C(=O)O)cc3)cc2CCC(=O)O)ccc2c1OCCC2=O [Example 85, 5-[(4-Carboxyphenyl)carbonyl]-2-[5-[(3,4-dihydro-4-oxo-8-propyl-2H-1-benzopyran-7-yl)oxy]pentyloxy]benzenepropanoic Acid] | 6.23 mg/kg
24 | 8.40 | CCCc1c(OCCCCCOc2ccc(C(=O)CCC(=O)O)cc2CCC(=O)O)ccc2c1OCCC2=O [Example 89, 3-(2-Carboxyethyl)-4-[5-[(3,4-dihydro-4-oxo-8-propyl-2H-1-benzopyran-7-yl)oxy]pentyloxy]-γ-oxobenzenebutanoic Acid] | 4.33 mg/kg
25 | 8.30 | CCCc1c(OCCCCCOc2ccc(C(=O)Cc3ccccc3C(=O)O)cc2CCC(=O)O)ccc2c1OCCC2=O [Example 92, 5-[2-(2-Carboxyphenyl)-1-oxoethyl]-2-[5-[(3,4-dihydro-4-oxo-8-propyl-2H-1-benzopyran-7-yl)oxy]pentyloxy]benzenepropanoic Acid] | 
26 | 7.10 | CCCc1c(OCCCCCOc2ccccc2/C=C/C(=O)O)ccc2c1OCCC2=O [Example 109, (E)-3-[2-[5-[(3,4-Dihydro-4-oxo-8-propyl-2H-1-benzopyran-7-yl)oxy]pentyloxy]phenyl]-2-propenoic Acid] | 
27 | 9.00 | CCCc1c(OCCCCCCc2ccc(OCCCC(=O)O)cc2/C=C/C(=O)O)ccc2c1OCCC2=O [Example 114, (E)-4-[3-(2-carboxyethenyl)-4-[6-[(3,4-dihydro-4-oxo-8-propyl-2H-1-benzopyran-7-yl)oxy]hexyl]phenoxy]butanoic acid] | 

Source: patent US5434186A, “Carboxylic acid leukotriene B4 antagonists” (Hoffmann-La Roche Inc., priority 1993, dated 1995)
